Data from paper PMC10498667 (Chemical Science, 2023).

Tests used:
[1] = Solubility in EtOH (TEAC conditions); assay type: physicochemical; settings: under TEAC experimental conditions
[2] = molecular target: T1, Aβ42 (Homo sapiens, UniProt P05067); test: ITC binding of 6 with Aβ42
T1 construct: purchased Peptide Institute, Inc. (Osaka, Japan)
Protocol: Distinct reactivities of 6 with metal-free Aβ and metal–Aβ were supported by various biophysical approaches. […] In the absence of Aβ, an increase or decrease in the absorption of the peaks at ca. 265, 300, 340, and 410 nm was monitored for 24 h (Fig. S18 ^†), which could be resulted from the oxidation of 6 in the presence of O2.[69] These spectral changes were accelerated upon incubation with Aβ, indicative of its impact on the oxidative modification of 6. Such transformation of 6 was also indicated in the presence of Cu(II) or Zn(II) with and without Aβ. To probe the interaction of 6 with Aβ, their binding properties were analyzed by isothermal titration calorimetry (ITC). For the association between 6 and Aβ, we recorded the heat change upon constant titration of the flavonoid into the solution of Aβ, where the dilution heat was also measured to avoid the heat change induced by its addition into the buffered solution. […] Thus, 6 can bind to Aβ with a micromolar binding affinity. […]
ITC. The solutions of Ab and 6 were subjected to degassing under vacuum for 3 min prior to loading into the instrument. […] […] The initial delay and the reference power were 60 s and 10 µcal/s, respectively. Dilution heat of 6 only was also measured under the same experimental conditions.
The ITC thermogram and binding isotherm were shown after the subtraction of the dilution heat.
The binding isotherm after baseline correction was fitted to the one-set-of-sites binding model using the MicroCal Origin software (version 7.0).
Expression and Purification of 15N-labeled Recombinant Ab42. 15N-labeled recombinant Ab42 was expressed in E. coli and purified as previously reported.27 Briefly, the DNA sequence coding the human Ab42 peptide was artificially constructed using codons preferred by E. coli with an extra Met residue at the N-terminal of the peptide. The DNA construct was inserted into pAED4 vector28 and the E. coli BL21 (DE3) pLysS strain (Novagen, Inc., Madison, WI, USA) was utilized in the protein expression. Transformed cells were incubated in LB media containing ampicillin and chloramphenicol until the cultures reach 3.5 McFarland turbidity. Cells were then harvested by centrifugation and the cell pellets were resuspended in M9 minimal media containing isotopically labeled 1 g/L 15N ammonium chloride, and induced by addition of 1 mM IPTG for 4 h. The peptide formed inclusion bodies in the bacterial cells. The purified inclusion bodies were dissolved in 20 mM NaOH and the peptide was further purified by repeated cycles of amyloid growth at low pH

[3] = molecular target: T1, Aβ42; test: ESI-MS and ESI-MS2 of Aβ42 treated with 6; settings: 6 200 μM, 3 h
Source text: To identify the modifications of Aβ in both the absence and presence of Cu(II) upon treatment of 6, we carried out the studies employing electrospray ionization mass spectrometry (ESI-MS). In the sample containing metal-free Aβ42 and 6, the addition of +16 Da into the +3-charged Aβ42 monomer, assigned to be the oxidized monomeric Aβ42, was detected (Fig. 7a), while such oxidation was not observed under anaerobic conditions (Fig. S20 ^†). To determine the oxidized amino acid residues in Aβ42, the b fragments generated by collision-induced dissociation were analyzed by tandem MS (ESI-MS^2). As illustrated in Fig. 7b and S21a, ^† the Met35 residue was measured to be the oxidation site in the singly oxidized Aβ42. […] Similar to metal-free Aβ42, the oxidation of Aβ40 at the Met35 residue was monitored by incubation with 6 (Fig. S22a, b and S23a ^†). […]
2D 1H−15N SOFAST-HMQC NMR Experiments. […] Experimental data were processed with NMRpipe29 and Sparky 3.115.30 The 1H and 15N assignments of 15N-labeled Ab were determined based on the previous results.21,31 The chemical shift perturbation was calculated following the equation (eq 4).32 Note that DdH and DdN represent the alterations in the chemical shifts of 1H and 15N of 15N-labeled Ab, respectively. […]

T1 sequence (P05067 672-713 limits assumed): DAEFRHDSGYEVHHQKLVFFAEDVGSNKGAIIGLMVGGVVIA

SMILES | solubility in ethanol (EtOH) [1] | Kd ([2]; one-site model, 10 °C, read-out: Binding affinity) [µM] | TΔS ([2]; pH 7.4, 10 °C) | ΔG ([2]; pH 7.4, 10 °C) | ΔH ([2]; pH 7.4, 10 °C) | plausible oxidation sites in singly oxidized Aβ ([3]; Cu(II)–Aβ42, Cu(II) 100 μM) | oxidation site in singly oxidized Aβ ([3]; metal-free Aβ42 100 μM, aerobic)
O=c1cc(-c2ccccc2)oc2cc(O)cc(O)c12 [compound 1, chrysin] | limited solubility | – | – | – | – | – | –
O=c1c(-c2ccc(O)c(O)c2)coc2cc(O)c(O)c(O)c12 [compound 6, 3-(3,4-dihydroxyphenyl)-5,6,7-trihydroxy-4H-chromen-4-one] | – | ~19.5 | 5.6 (±0.1) kcal mol^−1 | −6.1 (±0.1) kcal mol^−1 | −0.5 (±0.1) kcal mol^−1 | His13, His14, and Met35 | Met35
